Measured values published in US5981541A, “Substituted heterocycles as anti-tumor agents” (Rutgers, The State University of New Jersey, priority 1997, dated 1999).
Where two headings read alike, the source gives them in different places.

How the values were obtained:
[1] = target: T1, calf thymus topoisomerase II (Bos taurus, UniProt F1MDU7); test: Topo II-mediated DNA cleavage assay; format: biochemical; details: concentration relative to VM26 (= 1) producing the same cleavage on plasmid DNA in the presence of calf thymus topoisomerase II
T1 construct: from tissue; host or cells: calf thymus glands
Description: The plasmid pET11a and the E. coli strain BL21(DE3) used for enzyme expression were purchased from Novagen. IPTG was purchased from Sigma. The ECL system used for the Western blotting analysis of bacterial lysates was from Amersham (UK). All the restriction enzymes and Vent polymerase were from New England Biolabs. Mammalian topoisomerase II was isolated from calf thymus glands according to the published procedure (Halligan et al., J. Biol. Chem. 260:2475-2482 (1985)). The single copy yeast plasmids YCpGAL1 expressing various topoisomerase I genes in JN2-134 yeast strain were a kind gift of Dr. M-A. Bjornsti (Thomas Jefferson University, Philadelphia, Pa.). All bacterial and yeast media were from Difco (Detroit, Mich.), while cell culture media were purchased from Gibco-BRL (Gaithersburg, Md.).
(§1) Cleavage assays for the recombinant topoisomerases I and calf thymus topoisomerases I and II were done as described (Liu et al., J. Biol. Chem. 258:15365-15370 (1983)). The plasmid YEpG DNA used for the cleavage assays was prepared and labeled at its 3'-end using the published procedures.

[2] = tested on: camptothecin-resistant CPT-K5 cells; test: MTT-microtiter plate tetrazolinium cytotoxicity assay (MTA), CPT-K5; format: cell-based, human
Procedure: (§2) The IC50 of the drugs tested were determined by the MTT-microtiter plate tetrazolinium cytotoxicity assay (MTA) (Mosmann, T., J. Immunol. Methods 65:55-63 (1983); Denizot et al., J. Immunol. Methods 89:271-277 (1986)). Human lymphoblast RPMI 8402 cells and their camptothecin-resistant CPT-K5 cells (Andoh et al., Proc. Natl. Acad. Sci., USA 84:5565-5569 (1987)) were kindly provided by Dr. Toshiwo Andoh (Aichi Cancer Center Research Institute, Nagoya, Japan). The cell lines A2780 and its camptothecin-resistant derivative CPT-2000 were a generous gift of Dr. Jaulang Hwang (Institute of Molecular Biology, Academia sinica, Taiwan). Cells (2000 cells/well, seeded in […] growth medium) were grown in suspension at 37° C. in 5% CO2 and maintained by regular passage in RPMI medium supplemented with 10% heat inactivated fetal bovine serum, L-glutamine (2 mM), penicillin (100 U/mi), and streptomycin (0.1 mg/ml). The cells were exposed continuously for 4 days to drug concentrations ranging from 100 ug/ml to 1.0 ng/ml in ten fold dilutions, and assayed at the end of the fourth day. Each concentration and the no drug control were repeated at least twice in 6 replica wells. The results were plotted and the IC50 then measured. The drug sensitive human epidermoid carcinoma KB 3-1 cell line and its vinblastine-selected multidrug-resistant variant KB-V1 cells (Akiyama et al., Genetics 11:117-126 (1985)) were kindly provided by Dr. Michael Gottesmann (National Cancer Institute). They were grown as monolayer cultures at 37° C. in 5% CO2 and maintained by regular passage in Dulbecco's minimal essential medium supplemented with 10% heat inactivated fetal bovine serum. KB-V1 cells were maintained in the presence of […] vinblastine.

[3] = tested on: Human lymphoblast RPMI 8402 cells; test: MTT-microtiter plate tetrazolinium cytotoxicity assay (MTA), RPMI 8402; format: cell-based
Procedure: as §2

[4] = target: T2, human topoisomerase I (Homo sapiens, UniProt P11387); test: Topo I-mediated DNA cleavage assay; format: biochemical
T2 construct: 15 amino acid fusion from pET-11a vector (N); made in house; host or cells: E. coli BL21(DE3)
T2 sequence (P11387 1-765): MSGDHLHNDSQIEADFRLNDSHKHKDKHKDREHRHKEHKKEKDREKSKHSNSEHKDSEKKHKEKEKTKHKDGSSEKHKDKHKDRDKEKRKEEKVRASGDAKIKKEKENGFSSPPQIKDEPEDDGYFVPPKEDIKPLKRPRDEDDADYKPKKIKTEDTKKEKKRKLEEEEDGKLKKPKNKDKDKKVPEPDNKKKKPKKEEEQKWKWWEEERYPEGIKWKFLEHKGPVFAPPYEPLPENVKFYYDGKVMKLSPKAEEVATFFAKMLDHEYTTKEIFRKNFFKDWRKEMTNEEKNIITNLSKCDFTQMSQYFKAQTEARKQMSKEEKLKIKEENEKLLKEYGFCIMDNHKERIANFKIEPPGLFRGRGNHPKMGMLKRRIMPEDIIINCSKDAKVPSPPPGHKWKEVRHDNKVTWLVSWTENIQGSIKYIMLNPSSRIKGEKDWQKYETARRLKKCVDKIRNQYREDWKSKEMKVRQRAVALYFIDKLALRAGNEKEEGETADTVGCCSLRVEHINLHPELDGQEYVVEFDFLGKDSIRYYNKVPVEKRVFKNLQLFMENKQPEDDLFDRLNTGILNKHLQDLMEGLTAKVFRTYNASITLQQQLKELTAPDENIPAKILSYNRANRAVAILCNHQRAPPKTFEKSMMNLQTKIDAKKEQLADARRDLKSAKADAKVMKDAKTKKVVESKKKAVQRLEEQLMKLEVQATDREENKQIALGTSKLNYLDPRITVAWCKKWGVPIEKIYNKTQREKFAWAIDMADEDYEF
Description: To obtain large quantity of human topoisomerase I, the human topoisomerase I cDNA was cloned into the pET-11a vector, in which transcription of the cDNA is under the control of the inducible T7 promoter (Studier et al., Methods in Enzymol., Vol. 185:60-89, San Diego: Academic Press (1990)). Briefly, a 3.4 kb DNA fragment containing the entire coding sequence of human topoisomerase I and approximately 1 kb of untranslated region downstream of the stop codon was isolated from the plasmid YCpGAL1-hTOP1 (Bjornsti et al., Cancer Res. 49:6318-6323 (1989)) by cutting at the BamHI and EcoRI sites. The vector pET-11a was cut with the same restriction enzymes, dephosphorylated and ligated to the insert in the proper reading frame downstream of the vector cloning site. […] Since the translational start in pET is positioned at an upstream NdeI site, the expressed topoisomerase I has a 15 amino acid fusion at its N-terminus. pET1B was then transformed into E. coli BL21 (DE3), and, upon induction with 0.4 mM IPTG for 1 hour, the bacterial lysate was analyzed by 10% SDS-PAGE. […] Briefly, E. coli cells were lysed by repeated sonic bursts. The sonic extract was made in 1 M NaCl and 6% polyethylene glycol (PEG) to remove nucleic acids. The PEG supernatant was chromatographed directly on a hydroxyapatite column. […] The eluted enzyme was dialyzed against 50% glycerol, 30 mM potassium phosphate (pH 7.0), 1 mM dithiothreitol (DTT) and 0.1 mM EDTA and stored at -20° C.
as §1

[5] = Homo sapiens, CPT-K5, 96 h, read-out: Cytotoxicity IC50, CPT-K5
[6] = Homo sapiens, RPMI 8402, 96 h, read-out: Cytotoxicity IC50, RPMI
[7] = concentration relative to camptothecin (CPT = 1) producing the same cleavage on plasmid DNA in the presence of human topoisomerase I

T1 sequence (F1MDU7 1-1532): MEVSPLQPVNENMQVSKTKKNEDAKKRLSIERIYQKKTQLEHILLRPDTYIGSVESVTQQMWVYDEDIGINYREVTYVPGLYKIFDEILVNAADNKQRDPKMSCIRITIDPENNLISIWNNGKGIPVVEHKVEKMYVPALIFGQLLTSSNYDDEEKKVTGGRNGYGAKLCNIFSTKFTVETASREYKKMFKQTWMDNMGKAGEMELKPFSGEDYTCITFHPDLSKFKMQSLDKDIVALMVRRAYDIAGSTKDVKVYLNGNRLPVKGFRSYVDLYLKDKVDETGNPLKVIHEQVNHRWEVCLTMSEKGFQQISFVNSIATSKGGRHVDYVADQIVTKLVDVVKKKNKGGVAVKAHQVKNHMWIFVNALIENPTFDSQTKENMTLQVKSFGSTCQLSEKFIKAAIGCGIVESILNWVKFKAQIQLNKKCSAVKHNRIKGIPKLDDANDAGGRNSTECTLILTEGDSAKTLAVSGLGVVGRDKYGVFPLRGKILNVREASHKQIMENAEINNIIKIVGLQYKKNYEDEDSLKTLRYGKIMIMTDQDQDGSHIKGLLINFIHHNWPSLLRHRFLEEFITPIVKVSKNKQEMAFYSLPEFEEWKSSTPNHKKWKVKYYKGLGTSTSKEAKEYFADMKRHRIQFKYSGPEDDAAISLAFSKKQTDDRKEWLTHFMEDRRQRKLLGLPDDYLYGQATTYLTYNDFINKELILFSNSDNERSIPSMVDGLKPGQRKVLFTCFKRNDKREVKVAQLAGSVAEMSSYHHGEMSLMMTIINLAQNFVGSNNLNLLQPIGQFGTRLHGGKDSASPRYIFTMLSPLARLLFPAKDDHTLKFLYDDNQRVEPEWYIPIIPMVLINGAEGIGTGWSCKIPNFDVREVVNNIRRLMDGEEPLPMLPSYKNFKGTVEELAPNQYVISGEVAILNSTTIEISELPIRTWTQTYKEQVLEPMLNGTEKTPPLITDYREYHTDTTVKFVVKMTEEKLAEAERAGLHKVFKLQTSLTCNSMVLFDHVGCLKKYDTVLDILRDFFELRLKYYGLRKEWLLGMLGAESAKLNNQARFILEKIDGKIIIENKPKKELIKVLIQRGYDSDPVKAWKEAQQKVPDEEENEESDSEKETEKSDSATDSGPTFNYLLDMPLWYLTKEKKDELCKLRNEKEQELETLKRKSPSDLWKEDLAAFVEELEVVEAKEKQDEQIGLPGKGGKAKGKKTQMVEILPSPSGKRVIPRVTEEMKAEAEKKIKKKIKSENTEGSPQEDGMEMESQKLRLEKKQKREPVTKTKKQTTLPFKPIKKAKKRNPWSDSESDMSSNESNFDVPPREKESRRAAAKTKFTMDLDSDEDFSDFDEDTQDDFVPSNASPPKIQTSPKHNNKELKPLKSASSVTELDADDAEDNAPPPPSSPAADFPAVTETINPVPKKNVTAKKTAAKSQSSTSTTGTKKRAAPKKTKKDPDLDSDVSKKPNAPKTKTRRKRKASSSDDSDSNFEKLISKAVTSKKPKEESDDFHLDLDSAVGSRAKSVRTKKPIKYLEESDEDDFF

CC[C@@]1(O)C(=O)OCc2c1cc1n(c2=O)Cc2cc3ccccc3nc2-1 [CPT, Camptothecin, reference compound]
Topo II-mediated DNA cleavage (REC, Relative Effective Concentration) [1]: > 1000
IC50 [2, 5]: > 10 µM
IC50 [3, 6]: 0.004 µM
Topo I-mediated DNA cleavage (REC, Relative Effective Concentration) [4, 7]: 1

COc1cc2c(cc1OC)-c1nc3cc(OC)c(OC)cc3c(C)c1CC2 [Compound 6, 2,3,9,10-Tetramethoxy-7-methyl-5,6-dihydrobenz[c]acridine]
Topo II-mediated DNA cleavage (REC, Relative Effective Concentration) [1]: > 1000
IC50 [2, 5]: > 137 µM
IC50 [3, 6]: > 137 µM
Topo I-mediated DNA cleavage (REC, Relative Effective Concentration) [4, 7]: > 1000

COc1cc2ccc3c(C)c4cc(OC)c(OC)cc4nc3c2cc1OC [Compound 7, 2,3,9,10-Tetramethoxy-7-methylbenz[c]acridine]
Topo II-mediated DNA cleavage (REC, Relative Effective Concentration) [1]: > 1000
IC50 [2, 5]: 5.5 µM
IC50 [3, 6]: 7 µM
Topo I-mediated DNA cleavage (REC, Relative Effective Concentration) [4, 7]: > 1000

COc1cc2c(cc1OC)-c1c(c(C)c3cc(OC)c(OC)cc3[n+]1C)CC2 [Compound 8, 2,3,9,10-Tetramethoxy-7,1 2-dimethyl-5,6-dihydrobenz[c]acridinium methosulfate]
Topo II-mediated DNA cleavage (REC, Relative Effective Concentration) [1]: > 1000
IC50 [2, 5]: 12.2 µM
IC50 [3, 6]: 6.1 µM
Topo I-mediated DNA cleavage (REC, Relative Effective Concentration) [4, 7]: > 1000

COc1cc2ccc3c(C)c4cc(OC)c(OC)cc4[n+](C)c3c2cc1OC [Compound 9, 2,3,9,10-Tetramethoxy-7,1 2-dimethylbenz [c]acridinium methosulfate]
Topo II-mediated DNA cleavage (REC, Relative Effective Concentration) [1]: > 1000
IC50 [2, 5]: 1.2 µM
IC50 [3, 6]: 1.2 µM
Topo I-mediated DNA cleavage (REC, Relative Effective Concentration) [4, 7]: > 1000

COc1cc2c(cc1OC)-c1cc3cc(OC)c(OC)cc3nc1CC2 [Compound 13a, 2,3,9,10-Tetramethoxy-5,6-dihydrobenz[a]acridine]
Topo II-mediated DNA cleavage (REC, Relative Effective Concentration) [1]: > 1000
IC50 [2, 5]: 7.1 µM
IC50 [3, 6]: 7.1 µM
Topo I-mediated DNA cleavage (REC, Relative Effective Concentration) [4, 7]: 100

COc1cc2c(cc1OC)-c1cc3cc4c(cc3nc1CC2)OCO4 [Compound 13b, 2,3,-Dimethoxy-9,10-methylenedioxy-5,6-dihydrobenz[a]acridine]
Topo II-mediated DNA cleavage (REC, Relative Effective Concentration) [1]: > 1000
IC50 [2, 5]: 14.9 µM
IC50 [3, 6]: 9 µM
Topo I-mediated DNA cleavage (REC, Relative Effective Concentration) [4, 7]: 100

COc1cc2cc3c(nc2cc1OC)CCc1ccccc1-3 [Compound 13c, 9,10-Dimethoxy-5,6-dihydrobenz[a]acridine]
Topo II-mediated DNA cleavage (REC, Relative Effective Concentration) [1]: > 1000
IC50 [2, 5]: 6.9 µM
IC50 [3, 6]: 6.9 µM
Topo I-mediated DNA cleavage (REC, Relative Effective Concentration) [4, 7]: 1000

COc1cc2c(cc1OC)-c1cc3ccccc3nc1CC2 [Compound 13d, 2,3-Dimethoxy-5,6-dihydrobenz[a]acridine]
Topo II-mediated DNA cleavage (REC, Relative Effective Concentration) [1]: > 1000
IC50 [2, 5]: 8.6 µM
IC50 [3, 6]: 1 µM
Topo I-mediated DNA cleavage (REC, Relative Effective Concentration) [4, 7]: 100

COc1cc2cc3c(nc2cc1OC)CCc1c-3ccc2c1OCO2 [Compound 13e, 5,6-Dihydro-9,10-dimethoxy-3,4-methylenedioxybenz[a]acridine]
Topo II-mediated DNA cleavage (REC, Relative Effective Concentration) [1]: > 1000
IC50 [2, 5]: 22.4 µM
IC50 [3, 6]: 3 µM
Topo I-mediated DNA cleavage (REC, Relative Effective Concentration) [4, 7]: 1.0
topoisomerase I poisoning (in words) ([4]; summary statement): potent topoisomerase I poisions

COc1cc2cc3c(nc2cc1OC)CCc1c-3ccc(OC)c1OC [Compound 13f, 5,6-Dihydro-3,4,9,10-tetramethoxybenz[a]acridine]
Topo II-mediated DNA cleavage (REC, Relative Effective Concentration) [1]: > 1000
IC50 [2, 5]: 14.2 µM
IC50 [3, 6]: 14.2 µM
Topo I-mediated DNA cleavage (REC, Relative Effective Concentration) [4, 7]: 100

Oc1cc2c(cc1O)-c1cc3cc(O)c(O)cc3nc1CC2 [Compound 13g, 2,3,9,10-tetrahydroxy-5,6-dihydrobenz[a]acridine]
Topo II-mediated DNA cleavage (REC, Relative Effective Concentration) [1]: > 1000
IC50 [2, 5]: 13.6 µM
IC50 [3, 6]: 20.3 µM
Topo I-mediated DNA cleavage (REC, Relative Effective Concentration) [4, 7]: 1.0

COc1cc2cc3c(nc2cc1OC)CCc1cc(Cl)ccc1-3 [Compound 13j, 3-Chloro-9,10-dimethoxy-5,6-dihydrobenz[a]acridine]
Topo II-mediated DNA cleavage (REC, Relative Effective Concentration) [1]: > 1000
IC50 [2, 5]: 15.4 µM
IC50 [3, 6]: 9.2 µM
Topo I-mediated DNA cleavage (REC, Relative Effective Concentration) [4, 7]: 10

COc1cc(C2c3cc4c(cc3C(OC3OC5COC(c6cccs6)OC5C(O)C3O)C3COC(=O)C23)OCO4)cc(OC)c1O (centres unmarked) [VM-26, reference compound]
IC50 [2, 5]: 0.5 µM
IC50 [3, 6]: 0.3 µM
Topo I-mediated DNA cleavage (REC, Relative Effective Concentration) [4]: > 1000

Methylenedioxy-dihydro-demethyl-coralyne [MDD-Coralyne, reference compound]
IC50 ([2]; cpt-k5 cells, 96 h): 27 µM
IC50 ([3]; rpmi 8402 cells, 96 h): 8.1 µM
Topo I-mediated DNA cleavage (REC, Relative Effective Concentration) [4, 7]: 0.1
